From ChEMBL document CHEMBL4130367, “Click chemistry-based synthesis and anticancer activity evaluation of novel C-14 1,2,3-triazole dehydroabietic acid hybrids” (Eur J Med Chem, 2017)
Activity calls are given as the source filed them. The calls are words filed in the database; no cut-off is given here.

How the values were obtained:
MDA-MB-231 [1] = test: Induction of apoptosis in human MDA-MB-231 cells assessed as cleaved PARP protein expression up to 1 uM after 48 hrs by Western blot analysis; type: functional, cell-based
MDA-MB-231 [2] = test: Cytotoxicity against human MDA-MB-231 cells assessed as reduction in cell viability after 72 hrs by MTT assay; type: functional, cell-based; conditions: MDA-MB-231, 72 h
A549 [3] = test: Induction of apoptosis in human A549 cells assessed as genomic DNA fragmentation at 2.5 uM after 24 hrs by DAPI/TUNEL staining based spectrofluorometric method; type: functional, cell-based
HCT-116 = test: Cytotoxicity against human HCT116 cells assessed as reduction in cell viability after 72 hrs by MTT assay; type: functional, cell-based; conditions: HCT-116, 72 h
MDA-MB-231 [4] = test: Downregulation of NFkB p65 protein expression in human MDA-MB-231 cells up to 1 uM after 48 hrs by Western blot analysis; type: functional, cell-based
A549 [5] = test: Effect on microtubule formation in human A549 cells assessed as morphological changes at 1 to 10 umol after 18 hrs; type: cell-based
[6] = Selectivity index, ratio of IC50 for human HL7702 cells to IC50 for human HCT116 cells; type: toxicity; conditions: HL7702 cells versus HCT116 cells, read-out: Ratio IC50
MDA-MB-231 [7] = test: Induction of apoptosis in human MDA-MB-231 cells assessed as upregulation of Bax protein expression after 48 hrs by Western blot analysis; type: functional, cell-based
MDA-MB-231 [8] = test: Induction of apoptosis in human MDA-MB-231 cells assessed as early apoptotic cells at 0.1 uM after 24 hrs by Annexin V-FITC/propidium iodide staining based flow cytometry (reference value: 2.33%); type: functional
[9] = Metabolic stability in rat liver microsomes assessed as parent compound remaining after 150 mins in presence of NADPH by HPLC analysis; type: ADME, microsome; conditions: read-out: Stability
NCI/ADR-RES [10] = test: Growth inhibition of human MCF7/ADR cells after 72 hrs by MTT assay; type: functional, cell-based
MDA-MB-231 [11] = test: Induction of apoptosis in human MDA-MB-231 cells assessed as late apoptotic cells at 0.1 uM after 24 hrs by Annexin V-FITC/propidium iodide staining based flow cytometry (reference value: 2.97%); type: functional
PC-3 = test: Cytotoxicity against human PC3 cells assessed as reduction in cell viability after 72 hrs by MTT assay; type: functional, cell-based; conditions: PC-3, 72 h
[12] = Cytotoxicity against human […] cells assessed as reduction in cell viability after 72 hrs by MTT assay; type: functional, cell-based
[13] = Half life in mouse liver microsomes in presence of NADPH by HPLC analysis; type: ADME, microsome
[14] = Metabolic stability in dog liver microsomes assessed as parent compound remaining after 30 mins in presence of NADPH by HPLC analysis; type: ADME, Canis lupus familiaris, microsome; conditions: read-out: Stability
[15] = Selectivity index, ratio of IC50 for human HL7702 cells to IC50 for human U251 cells; type: toxicity; conditions: HL7702 cells versus U251 cells, read-out: Ratio IC50
[16] = Metabolic stability in mouse liver microsomes assessed as parent compound remaining after 180 mins in presence of NADPH by HPLC analysis; type: ADME, microsome; conditions: read-out: Stability
[17] = Metabolic stability in mouse liver microsomes assessed as parent compound remaining after 90 mins in presence of NADPH by HPLC analysis; type: ADME, microsome; conditions: read-out: Stability
HFF = test: Cytotoxicity against HFF cells assessed as reduction in cell viability after 72 hrs by MTT assay; type: cell-based; conditions: Homo sapiens
[18] = Selectivity index, ratio of IC50 for HFF cells to IC50 for human LNCAP cells; type: toxicity; conditions: HFF cells versus LNCAP cells, read-out: Ratio IC50
[19] = Metabolic stability in dog liver microsomes assessed as parent compound remaining after 90 mins in presence of NADPH by HPLC analysis; type: ADME, Canis lupus familiaris, microsome; conditions: read-out: Stability
SK-OV-3 = test: Cytotoxicity against human SKOV3 cells assessed as reduction in cell viability after 72 hrs by MTT assay; type: functional, cell-based; conditions: SK-OV-3, 72 h
[20] = Half life in dog liver microsomes in presence of NADPH by HPLC analysis; type: ADME, Canis lupus familiaris, microsome
[21] = Selectivity index, ratio of IC50 for human HL7702 cells to IC50 for human A549 cells; type: toxicity; conditions: HL7702 cells versus A549 cells, read-out: Ratio IC50
[22] = Selectivity index, ratio of IC50 for HFF cells to IC50 for human SMCC7721 cells; type: toxicity; conditions: HFF cells versus SMCC7721 cells, read-out: Ratio IC50
MDA-MB-231 [23] = test: Induction of apoptosis in human MDA-MB-231 cells assessed as dead cells at 1 uM after 24 hrs by Annexin V-FITC/propidium iodide staining based flow cytometry (reference value: 2.15%); type: functional
MDA-MB-231 [24] = test: Induction of apoptosis in human MDA-MB-231 cells assessed as early apoptotic cells at 1 uM after 24 hrs by Annexin V-FITC/propidium iodide staining based flow cytometry (reference value: 2.33%); type: functional
U-251 = test: Cytotoxicity against human U251 cells assessed as reduction in cell viability after 72 hrs by MTT assay; type: functional, cell-based; conditions: U-251, 72 h
[25] = Metabolic stability in rat liver microsomes assessed as parent compound remaining after 180 mins in presence of NADPH by HPLC analysis; type: ADME, microsome; conditions: read-out: Stability
A549 [26] = test: Cytotoxicity against human A549 cells assessed as reduction in cell viability after 72 hrs by MTT assay; type: functional, cell-based; conditions: A549, 72 h
[27] = Half life in rat liver microsomes in presence of NADPH by HPLC analysis; type: ADME, microsome
[28] = Selectivity index, ratio of IC50 for human HL7702 cells to IC50 for human SKBR3 cells; type: toxicity; conditions: HL7702 cells versus SKBR3 cells, read-out: Ratio IC50
MCF7 = test: cells; conditions: Homo sapiens, MCF7, 72 h
Description: Cytotoxicity against human MCF7 cells assessed as reduction in cell viability after 72 hrs by MTT assay

NCI/ADR-RES [29] = test: Growth inhibition of human MCF7/ADR cells at 2.5 to 5 uM after 72 hrs by MTT assay relative to control; type: functional
[30] = Metabolic stability in mouse liver microsomes assessed as parent compound remaining after 150 mins in presence of NADPH by HPLC analysis; type: ADME, microsome; conditions: read-out: Stability
[31] = Metabolic stability in rat liver microsomes assessed as parent compound remaining after 120 mins in presence of NADPH by HPLC analysis; type: ADME, microsome; conditions: read-out: Stability
MDA-MB-231 [32] = test: Induction of apoptosis in human MDA-MB-231 cells assessed as late apoptotic cells at 1 uM after 24 hrs by Annexin V-FITC/propidium iodide staining based flow cytometry (reference value: 2.97%); type: functional
[33] = Metabolic stability in dog liver microsomes assessed as parent compound remaining after 60 mins in presence of NADPH by HPLC analysis; type: ADME, Canis lupus familiaris, microsome; conditions: read-out: Stability
[34] = Selectivity index, ratio of IC50 for HFF cells to IC50 for human SKBR3 cells; type: toxicity; conditions: HFF cells versus SKBR3 cells, read-out: Ratio IC50
[35] = Selectivity index, ratio of IC50 for HFF cells to IC50 for human HCT116 cells; type: toxicity; conditions: HFF cells versus HCT116 cells, read-out: Ratio IC50
MDA-MB-231 [36] = test: Induction of apoptosis in human MDA-MB-231 cells assessed as cleaved caspase-3 protein expression up to 1 uM after 48 hrs by Western blot analysis; type: functional, cell-based

SMILES: COC(=O)[C@]1(C)CCC[C@]2(C)c3ccc(C(C)C)c(NC(=O)Cn4cc(-c5cccc(NC(=O)OC(C)(C)C)c5)nn4)c3CC[C@@H]12
- Activity (MDA-MB-231 [1]): Active
- IC50 (MDA-MB-231 [2]): 700 nM
- Activity (A549 [3]): Active
- IC50 (HCT-116): 1000 nM
- Activity (MDA-MB-231 [4]): Active
- Activity (A549 [5]): inactive
- selectivity ratio [6]: 7.9
- Activity (MDA-MB-231 [7]): Active
- Activity (MDA-MB-231 [8]): 4.32%
- remaining at 2.5 h [9]: 42.1%
- IC50 (NCI/ADR-RES [10]): 900 nM
- growth inhibition (GI) (NCI/ADR-RES [10]): Dose-dependent effect
- Activity (MDA-MB-231 [11]): 9.91%
- IC50 (PC-3): 900 nM
- IC50 [12]: 1100 nM
- half-life [13]: 1.76 h
- remaining at 0.5 h [14]: 77.3%
- selectivity ratio [15]: 4.5
- remaining at 3 h [16]: 11.1%
- remaining at 1.5 h [17]: 61.3%
- IC50 (HFF): 5400 nM
- selectivity ratio [18]: 8.6
- remaining at 1.5 h [19]: 31.6%
- IC50 (SK-OV-3): 1200 nM
- t1/2 [20]: 1.16 h
- selectivity ratio [21]: 6.1
- selectivity ratio [22]: 5.2
- Activity (MDA-MB-231 [23]): 7.01%
- Activity (MDA-MB-231 [24]): 6.13%
- IC50 (U-251): 1800 nM
- remaining at 3 h [25]: 31%
- IC50 (A549 [26]): 1300 nM
- half-life [27]: 2.19 h
- selectivity ratio [28]: 8.4
- IC50 (MCF7): 800 nM
- growth inhibition (GI) (NCI/ADR-RES [29]): >50%
- remaining at 2.5 h [30]: 25.7%
- remaining at 2 h [31]: 58.4%
- Activity (MDA-MB-231 [32]): 16.75%
- remaining at 1 h [33]: 59%
- selectivity ratio [34]: 5.8
- selectivity ratio [35]: 5.4
- Activity (MDA-MB-231 [36]): Active
